According to patent publication US20180042891A1, “Cancer Cell Apoptosis” (e-Therapeutics plc, priority 2009, published 2018):

What was measured:
A375 melanoma cells = experiment: Caspase 3/7 apoptosis and CellTiter-Blue cell viability assay, 24 hour; format: cell-based; details: A375, 24 hours incubation
Experimental: (§1) Assay was performed at a 24 hour timepoint on 3 melanoma lines (A375, G-361, WM266-4) 2 breast cancer lines (MCF7, MDA-MB-231), fibroblast (46BR.1G1), colon cancer (HCT116), prostate cancer (PC-3), glioblastoma (U373) and non-small cell lung cancer (NSCLC) (DMS-114)
(§2) The above cell lines were maintained in RPMI 1640 culture medium (Sigma, UK) containing 10% (v/v) heat inactivated foetal bovine serum (Sigma, UK) and 2 mM […] at 37° C. in 5% humidified CO2. Cells were harvested, washed, re-suspended into growth medium and counted (Beckman-Coulter Vi-CELL XR). Cells were plated onto the middle 240 wells of 384 tissue culture plates at 1.6×lO^5 to 2.4×lO^5 cells/ml in 12.5 μl/well aliquots. 50 μl of growth media was aliquoted into the outer wells. 2 plates were prepared per cell line. Plates were incubated overnight at 37° C., in 5% humidified CO2.
(§3) Dexanabinol was prepared in growth medium at 2 times the final assay concentration at 125, 31.3, 7.81, 2.00, 0.49, 0.12, 0.031 and O.OO8 μM (DMSO concentration was kept constant across the dilution range at 0.5%).
(§4) Cisplatin was used as a positive control. The final assays concentrations were 10, 2.5, 0.63, 0.156, 0.039, 0.010, 0.002 and 0.0006 μg/ml. […] 12.5 μl of growth media was added to the media control wells. The plates were incubated for 24 hours at 37° C., in 5% humidified CO2.
(§5) Caspase 3/7 levels were assessed by Apo-ONE® Homogeneous Caspase-3/7 assay kit. Fluorescence was measured using a FlexStation® II^384 plate reader at 1, 2, 3 and 4 hours after addition of the caspase substrate. The 4 hour readings were used for analysis.
(§6) The cell viability assay was performed in parallel on the same plate for each line using CellTiter-Blue® (Promega) reagent. Briefly, 25 μl of CellTiter-Blue® (Promega) reagent was added to each well. The plates were shaken for 1 minute at 500 rpm and then incubated at 37° C., 5% CO2 for 4 hours.

DMS-114 NSCLC cells = experiment: as above; format: cell-based; details: DMS-114, 24 hours incubation
Experimental: as §1, §2, §3, §4, §5, §6

[1] = test system: HCT116 colon cancer cells; experiment: as above; format: cell-based; details: HCT116, 24 hours incubation
Experimental: as §1, §2, §3, §4, §5, §6

MCF7 breast cancer cells = experiment: as above; format: cell-based; details: MCF7, 24 hours incubation
Experimental: as §1, §2, §3, §4, §5, §6

U373 glioblastoma cells = experiment: as above; format: cell-based; details: U373, 24 hours incubation
Experimental: as §1, §2, §3, §4, §5, §6

[2] = test system: 46Br.1G1 fibroblast cells; experiment: as above; format: cell-based, human; details: 46Br.1G1, 24 hours incubation
Experimental: as §1, §2, §3, §4, §5, §6

G-361 melanoma cells = experiment: as above; format: cell-based, human; details: G-361, 24 hours incubation
Experimental: as §1, §2, §3, §4, §5, §6

[3] = test system: MDA-MB-231 breast cancer cells; experiment: as above; format: cell-based, human; details: MDA-MB-231, 24 hours incubation
Experimental: as §1, §2, §3, §4, §5, §6

[4] = test system: PC-3 prostate cancer cells; experiment: as above; format: cell-based, human; details: PC-3, 24 hours incubation
Experimental: as §1, §2, §3, §4, §5, §6

WM266-4 melanoma cells = experiment: as above; format: cell-based, human; details: WM266-4, 24 hours incubation
Experimental: as §1, §2, §3, §4, §5, §6

[5] = CellTiter-Blue cell viability (cytotoxicity), whole panel of cell lines; format: cell-based; details: human; at the highest concentration; read-out: loss in cell viability
Experimental: as §1, §2, §3
(§7) The final assays concentrations were 10, 2.5, 0.63, 0.156, 0.039, 0.010, 0.002 and 0.0006 μg/ml. […] 12.5 μl of growth media was added to the media control wells. The plates were incubated for 24 hours at 37° C., in 5% humidified CO2.
as §6

[6] = test system: panel of cancer cell lines and a human fibroblast line; experiment: as above; format: cell-based
Experimental: as §1, §2, §3, §7, §6

[7] = test system: panel of cancer cell lines and a human fibroblast line; experiment: Apo-ONE Caspase-3/7 apoptosis assay, whole panel of cell lines; format: cell-based
Experimental: as §1, §2, §3
Cisplatin was used as a positive control. […]
as §5

CDK2 = CDK2 (Homo sapiens, UniProt P24941); experiment: Direct assay against CDK2; format: biochemical; details: when directly assayed
CDK5 = CDK5 (Homo sapiens, UniProt Q00535); experiment: Direct assay against CDK5; format: biochemical; details: when directly assayed
Aspc-1 = test system: Aspc-1; parameters: dose or concentration left out as unconfirmed; details: cited from earlier work
Panc-1 cells = test system: Panc-1 cells; parameters: dose or concentration left out as unconfirmed; details: at this same concentration; cited from earlier work
[8] = test system: melanoma cell lines (A375, Malme-3M, UACC62); details: previous studies, WO '700; read-out: decreased growth, IC50 value; cited from earlier work

Sequence of CDK5 (Q00535 whole entry, species assumed): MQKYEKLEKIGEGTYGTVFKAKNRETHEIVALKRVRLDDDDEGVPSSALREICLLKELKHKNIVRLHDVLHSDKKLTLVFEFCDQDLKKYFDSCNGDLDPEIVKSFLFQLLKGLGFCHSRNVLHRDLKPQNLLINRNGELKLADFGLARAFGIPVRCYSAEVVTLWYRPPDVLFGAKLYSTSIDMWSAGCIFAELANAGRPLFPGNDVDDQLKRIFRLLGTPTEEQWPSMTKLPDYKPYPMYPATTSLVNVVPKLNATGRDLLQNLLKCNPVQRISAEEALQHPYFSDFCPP
Sequence of CDK5 (Q15078 99-307 partner limits assumed, species assumed): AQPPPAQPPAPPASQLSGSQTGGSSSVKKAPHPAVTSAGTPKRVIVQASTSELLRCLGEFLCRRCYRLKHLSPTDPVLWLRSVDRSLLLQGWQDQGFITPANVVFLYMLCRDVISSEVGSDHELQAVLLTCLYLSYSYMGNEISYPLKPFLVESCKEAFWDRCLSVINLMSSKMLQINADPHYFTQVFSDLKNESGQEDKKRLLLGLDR

**Q.** With `CCCCCCC(C)(C)c1cc(O)c2c(c1)OC(C)(C)[C@H]1CC=C(CO)C[C@H]21` [Dexanabinol, 1, 1 dimethyl heptyl-(3S,4S)-7-hydroxy-Δ^6-tetrahydrocannabinol] as the compound, how does the “Rank: apoptosis induction and decrease in proliferation” value (from here on “Rank: apoptosis induction and decrease”) (A375 melanoma cells) read?
**A.** ** (moderate apoptosis induction and decrease in proliferation (35-70%))

**Q.** And the IC50 (A375 melanoma cells; Homo sapiens, A-375)?
**A.** 19.2 µM

**Q.** And the “Rank: apoptosis induction and decrease” value (DMS-114 NSCLC cells)?
**A.** * (weak apoptosis induction and decrease in proliferation (<35%))

**Q.** And the IC50 (DMS-114 NSCLC cells; Homo sapiens)?
**A.** 10 to 50 µM

**Q.** And the “Rank: apoptosis induction and decrease” value [1]?
**A.** *** (good apoptosis induction and decrease in proliferation (>70%))

**Q.** And the IC50 ([1]; Homo sapiens, HCT-116)?
**A.** 22.3 µM

**Q.** And the IC50 (MCF7 breast cancer cells; Homo sapiens)?
**A.** 16.2 µM

**Q.** What about the “Rank: apoptosis induction and decrease” value (MCF7 breast cancer cells) of the same compound?
**A.** *** (good apoptosis induction and decrease in proliferation (>70%))

**Q.** And the IC50 (U373 glioblastoma cells; Homo sapiens, U373 MG)?
**A.** 10 to 50 µM

**Q.** And the “Rank: apoptosis induction and decrease” value (U373 glioblastoma cells)?
**A.** * (weak apoptosis induction and decrease in proliferation (<35%))

**Q.** What about the “Rank: apoptosis induction and decrease” value [2] of the same compound?
**A.** *** (good apoptosis induction and decrease in proliferation (>70%))

**Q.** What about the IC50 ([2]; Homo sapiens, Fibroblast) of the same compound?
**A.** 23.1 µM

**Q.** What about the “Rank: apoptosis induction and decrease” value (G-361 melanoma cells) of the same compound?
**A.** *** (good apoptosis induction and decrease in proliferation (>70%))

**Q.** And the IC50 (G-361 melanoma cells; Homo sapiens)?
**A.** 11 µM

**Q.** And the IC50 ([3]; Homo sapiens)?
**A.** 10 to 50 µM

**Q.** What about the “Rank: apoptosis induction and decrease” value [3] of the same compound?
**A.** ** (moderate apoptosis induction and decrease in proliferation (35-70%))

**Q.** And the IC50 ([4]; Homo sapiens)?
**A.** 19.9 µM

**Q.** What about the “Rank: apoptosis induction and decrease” value [4] of the same compound?
**A.** *** (good apoptosis induction and decrease in proliferation (>70%))

**Q.** What about the IC50 (WM266-4 melanoma cells; Homo sapiens, WM 266-4) of the same compound?
**A.** 20.9 µM

**Q.** What about the “Rank: apoptosis induction and decrease” value (WM266-4 melanoma cells) of the same compound?
**A.** ** (moderate apoptosis induction and decrease in proliferation (35-70%))

**Q.** What about the cytotoxicity at 24 h, 62.5 µM [5] of the same compound?
**A.** 100%

**Q.** What about the IC50 ([6]; Homo sapiens, Fibroblast, read-out: cytotoxic response, IC50 values) of the same compound?
**A.** 10 to 25 µM

**Q.** And the “concentration giving dose-dependent decrease in cell viability” value ([6]; all cell lines)?
**A.** > 10^−5 M

**Q.** And the “concentrations at which pro-apoptotic effect and effect on cell number were shown” value [7]?
**A.** ≥ 10 µM

**Q.** What about the “concentration of peak response in apoptosis” value ([7]; dropped at the highest concentration of 10 μM) of the same compound?
**A.** 2.5 µM

**Q.** What about the “direct activity against CDK2” value (CDK2) of the same compound?
**A.** no significant direct activity

**Q.** What about the “direct activity against CDK5” value (CDK5) of the same compound?
**A.** no significant direct activity

**Q.** And the Aspc-1 proliferation (Aspc-1)?
**A.** not affected

**Q.** What about the “Panc-1 cells proliferation inhibited” value (Panc-1 cells) of the same compound?
**A.** 26%

**Q.** What about the IC50 [8] of the same compound?
**A.** 10 to 20 µM

**Q.** With `N.N.[Cl][Pt][Cl]` [Cisplatin, reference compound] as the compound, how does the IC50 (A375 melanoma cells) read?
**A.** 21.8 µM

**Q.** What about the “Rank: apoptosis induction and decrease” value (A375 melanoma cells) of the same compound?
**A.** ** (moderate apoptosis induction and decrease in proliferation (35-70%))

**Q.** And the IC50 (DMS-114 NSCLC cells)?
**A.** ~40.2 µM

**Q.** And the “Rank: apoptosis induction and decrease” value (DMS-114 NSCLC cells)?
**A.** * (weak apoptosis induction and decrease in proliferation (<35%))

**Q.** What about the IC50 [1] of the same compound?
**A.** 29.5 µM

**Q.** What about the “Rank: apoptosis induction and decrease” value [1] of the same compound?
**A.** ** (moderate apoptosis induction and decrease in proliferation (35-70%))

**Q.** And the IC50 (MCF7 breast cancer cells)?
**A.** 40.6 µM

**Q.** What about the “Rank: apoptosis induction and decrease” value (MCF7 breast cancer cells) of the same compound?
**A.** ** (moderate apoptosis induction and decrease in proliferation (35-70%))

**Q.** What about the IC50 (U373 glioblastoma cells) of the same compound?
**A.** > 33 µM

**Q.** What about the “Rank: apoptosis induction and decrease” value (U373 glioblastoma cells) of the same compound?
**A.** * (weak apoptosis induction and decrease in proliferation (<35%))

**Q.** And the IC50 [2]?
**A.** 21.5 µM

**Q.** And the “Rank: apoptosis induction and decrease” value [2]?
**A.** ** (moderate apoptosis induction and decrease in proliferation (35-70%))

**Q.** And the IC50 (G-361 melanoma cells)?
**A.** 18 µM

**Q.** What about the “Rank: apoptosis induction and decrease” value (G-361 melanoma cells) of the same compound?
**A.** ** (moderate apoptosis induction and decrease in proliferation (35-70%))

**Q.** And the IC50 [3]?
**A.** > 33 µM

**Q.** And the “Rank: apoptosis induction and decrease” value [3]?
**A.** * (weak apoptosis induction and decrease in proliferation (<35%))

**Q.** And the IC50 [4]?
**A.** ~58 µM

**Q.** And the “Rank: apoptosis induction and decrease” value [4]?
**A.** * (weak apoptosis induction and decrease in proliferation (<35%))

**Q.** And the IC50 (WM266-4 melanoma cells)?
**A.** 62 µM

**Q.** What about the “Rank: apoptosis induction and decrease” value (WM266-4 melanoma cells) of the same compound?
**A.** * (weak apoptosis induction and decrease in proliferation (<35%))
